Measured values published in patent publication US10647680B2, “Urea compound, preparation method therefor and medical use thereof” (Ancureall Pharmaceutical (Shanghai) Co., Ltd., priority 2016, dated 2020).

Legend:
[1] = test system: A375 (BRAF V600E mutant type); test: In vitro growth inhibition (GI50), A375; type: cell-based; settings: Homo sapiens, A-375
From the text: Tumor cell line is an effective cell model for studying the inhibition of tumor cell growth or proliferation in vitro. In the present invention, a representative tumor cell line was selected to determine the cell growth inhibition activity of the present compound. All cell lines used were from ATCC, DSMZ, and the Cell Bank of the Chinese Academy of Sciences. Cell culture conditions and methods were in accordance with the requirements of each cell line. Cells were subcultured in vitro for no more than 3 passages each time, and as required, single-clone purification and identification of cell lines could be carried out.
The cell culture media used were RPMI1640 (Gibco), MEM (Gibco), McCOY'S5A (Gibco), and IMDM (Gibco). The complete medium was prepared by supplement with 5˜20% fetal calf serum (Gibco), 1% double-antibiotics (10000 units/mL penicillin and 10000 units/mL), 2 mM glutamine or 1 mM sodium pyruvate, respectively.
(§1) Human large cell lung cancer cell NCI-H460 (KRAS […] mutant type, ATCC), human non-small cell lung cancer cell line H1299 (NRAS Q61K mutant type, ATCC), human melanoma cell line A375 (BRAF V600E mutant type, Shanghai Cell Bank of Chinese Academy of Sciences), human colon cancer cell line HCT116 (KRAS G13D mutant type, Shanghai Cell Bank, Chinese Academy of Sciences) were cultured in a complete medium of 1×RPMI1640 (10% FBS), respectively. Human non-small cell lung cancer cells A549 (KRAS G12S mutant type, Shanghai Cell Bank, Chinese Academy of Sciences) were cultured in a complete medium of 1× Ham's supplemented with 10% FBS, 1% double antibody, and 2 mM glutamine.
(§2) Adherent cells were digested with 0.25% pancreatin-EDTA (Gibco). The suspension cells were collected by centrifugation. The supernatant was discarded and the cell pellet was resuspended and counted. Different cell concentrations (5˜10×10^4 cells/mL) were prepared according to the growth cycle of each cell line and then seeded on a 96-well plate (Corning), 100 μL/well. The cells were incubated overnight at 37° C., 5% CO2. The compounds were added to the cells on the second day with 2 wells in parallel. The final concentration of organic solvent shall not exceed 1%. The cells were continually incubated for 3 to 5 days, and then subjected to MTT assay.
(§3) The compound of the present invention and the control compound were dissolved in DMSO (Sigma) respectively, with the purity of more than 98%. The compound was stored in a concentration of 10 mM at −20° C. and diluted to 2- or 10-fold series prior to use.
Dojindo CCK8 reagent kit was used as MTT assay. THERMO […] FC meter was used as microplate reader.
For adherent cells, culture medium was removed and immediately replaced with the fresh prepared medium which contains 10% CCK8 reagent (100 μL/well). For the suspension cells, CCK8 was directly added to 10% of the final concentration. The cells were continually incubated for 1˜4 h. When a dark yellow color could be observed in the solvent control wells, the absorbance value at OD450 nm was measured and the cell growth rate was calculated according to the following formula: Cell Growth Rate (%)=100*(T−T0)/(C−T0) T=optical density of drug treatment cell well—optical density of blank control well; T0=optical density of cell well before drug treatment—optical density of blank control well; C=optical density of cell well of solvent control group—optical density of blank control well. The concentration value of 50% inhibition of cell growth (GI50) was calculated according to the drug concentration and cell growth rate curve. The experiment was independently repeated 1˜3 times, and subject to biological statistical analysis. 4. Experimental Results
Tumor cell growth inhibition test was performed by selecting representative compounds (compounds 4, 11, 12, 16, 27, 68, 71, 77, 79, 89 and 116 of the present invention). The initial concentration of the compound was 5,000 nM, then it was serially diluted by 2-fold or 10-fold to 0.01 nM. […]

[2] = test system: tumor cells with abnormal expressions of EGFR, HER2/ERBB2, FGFR1, RAS, BRAF, cMET, and ALK genes; test: In vitro growth inhibition of different tumor cells (summary over the panel); type: cell-based, human; settings: GI50 value in the micro-molar range
From the text: Human epidermal cancer cell line A431 (EGFR WT, amplification and high expression, from Shanghai Cell Bank of Chinese Academy of Sciences and ATCC), human lung cancer cell line NCI-H292 (EGFR WT, purchased from Shanghai Cell Bank of Chinese Academy of Sciences), NSCLC cell lines PC-9 and HCC827 (EGFR exon19 E746-A750 deletion, two cell lines are sensitive to the first-generation EGFR PTK inhibitor), NSCLC cell line NCI-H1975 (EGFR L858R/T790M and the first-generation EGFR inhibitor resistance, ATCC) were cultured with 1×RPMI1640 complete medium (supplement with 10% FBS), respectively.
Human gastric cancer cell line NCI-N87 (HER2/ErbB2 amp, ATCC), human breast cancer cell line HCC1954 (HER2/ErbB2 amp, ATCC) and ZR-75-30 (HER2/ErbB2 amp, ATCC), human adenocarcinoma cell line AU565 (HER2/ErbB2 amp, ATCC), human lung squamous cell carcinoma cell line NCI-H2170 (HER2/ErbB2 amp, ATCC), human bronchioalveolar adenocarcinoma cell line NCI-H1781 (HER2/ErbB2 Ins G776V,C mutant type, ATCC) were cultured with a 1×RPMI1640 complete medium (10% FBS), respectively. Human lung adenocarcinoma cell line Calu-3 (HER2/ErbB2 amp, ATCC) was cultured with 1×MEM, 10% FBS, 1% double antibody, 1% NEAA (Gibco), 2 mM glutamine and 1 mM sodium pyruvate. The human breast cancer cell line SK-BR-3 (HER2/ErbB2 amp, ATCC) was cultured with a McCOY'S5A complete medium (10% FBS).
The human gastric cancer cell line MKN-45 (c-MET amp, ATCC) and the non-small cell lung cancer cell line NCI-H1993 (c-MET amp, ATCC) were cultured in complete medium comprising 1×RPMI1640 and 10% FBS, respectively.
Human non-small cell lung cancer cell line NCI-H2228 (expressing EML4-ALK fusion gene, ATCC) and human anaplastic large cell lymphoma cell line Karpas-299 (expressing NPM-ALK fusion gene, ATCC) were cultured in complete medium comprising 1×RPMI1640 (10% FBS), respectively. Neuroblastoma cell line SH-SY5Y (expressing ALK F1174L mutant protein, Shanghai Cell Bank, Chinese Academy of Sciences) was cultured in MEM complete medium (1×MEM, 10% FBS, 1% NEAA, 1 mM sodium pyruvate).
Human non-small cell lung cancer cell NCI-H1581 (FGFR1 amp, ATCC) is an FGFR1 gene amplified/overexpressed tumor cell line. It was cultured in complete medium comprising 1×RPMI1640 with 10% FBS.
as §1, §2, §3
Dojindo CCK8 reagent kit was used as MTT assay. THERMO […] FC meter was used as microplate reader. […]

| GI50 [1] [nM] | Compound | inhibition effect on growth of tumor cells with abnormal expressions of EGFR, HER2/ERBB2, FGFR1, RAS, BRAF, cMET, and ALK genes [2] |
| --- | --- | --- |
| > 2500 | CC(C)(C)c1cc(NC(=O)Nc2ccc(-n3cnc4cc(O)ccc43)cc2)no1 [Compound 4, 1-(5-tert-butyl-isoxazol-3-yl)-3-[4-(5-hydroxy-benzimidazol-1-yl)-phenyl]-urea] | – |
| > 2500 | CC(C)(C)c1cc(NC(=O)Nc2ccc(-n3cnc4cc(OCCO)ccc43)cc2)no1 [Compound 11, 1-(5-tert-butyl-isoxazol-3-yl)-3-{4-[5-(2-hydroxy-ethoxyl)-benzimidazol-1-yl]-phenyl]-urea] | – |
| > 2500 | CC(C)(C)c1cc(NC(=O)Nc2ccc(-n3cnc4cc(OCCN5CCOCC5)ccc43)cc2)no1 [Compound 16, 1-(5-tert-butyl-isoxazol-3-yl)-3-{4-[5-(2-morpholin-4-yl-ethoxyl)-benzimidazol-1-yl]-phenyl}-urea] | no significant inhibition effect |
| > 2500 | CC(C)(C)c1cc(NC(=O)Nc2ccc(-n3cnc4ccc(OCCN5CCOCC5)cc43)cc2)no1 [Compound 27, 1-(5-tert-butyl-isoxazol-3-yl)-3-{4-[6-(2morpholin-4-yl-ethoxyl)-benzimidazol-1-yl]-phenyl}-urea] | no significant inhibition effect |
| > 2500 | CC(C)(C)c1cc(NC(=O)Nc2ccc(-n3cnc4ccccc43)cc2)[nH]n1 [Compound 68, 1-(4-benzimidazol-1-yl-phenyl)-3-(5-tert-butyl-2H-pyrazol-3-yl)-urea] | no significant inhibition effect |
| > 2500 | COc1ccc2c(c1)ncn2-c1ccc(NC(=O)Nc2cc(C(C)(C)C)n[nH]2)cc1 [Compound 71, 1-(5-tert-butyl-2H-pyrazol-3-yl)-3-[4-(5-methoxyl-benzimidazol-1-yl)-phenyl]-urea] | no significant inhibition effect |
| > 2500 | CC(C)(C)c1cc(NC(=O)Nc2ccc(-n3cnc4cc(OCCO)ccc43)cc2)[nH]n1 [Compound 79, 1-(5-tert-butyl-2H-pyrazol-3-yl)-3-{4-[5-(2-hydroxy-ethoxyl)-benzimidazol-1-yl]-phenyl]urea] | – |
| > 2500 | CC(C)(C)c1cc(NC(=O)Nc2ccc(-n3cnc4cc(OCCN5CCOCC5)ccc43)cc2)[nH]n1 [Compound 89, 1-(5-tert-butyl-2H-pyrazol-3-yl)-3-{4-[5-(2-morpholin-4-yl-ethoxyl)-benzimidazol-1-yl]-phenyl}-urea] | no significant inhibition effect |
| > 2500 | CC(C)(C)c1cc(N)n(C(=O)Nc2ccc(-n3cnc4ccccc43)cc2)n1 [Compound 116, 5-amino-3-tert-butyl-pyrazol-1-carboxylic acid (4-benzimidazol-1-yl-phenyl)-amide] | no significant inhibition effect |

| Compound | GI50 [1] [nM] | inhibition effect on growth of tumor cells with abnormal expressions of EGFR, HER2/ERBB2, FGFR1, RAS, BRAF, cMET, and ALK genes [2] |
| --- | --- | --- |
| COCCOc1ccc2c(c1)ncn2-c1ccc(NC(=O)Nc2cc(C(C)(C)C)n[nH]2)cc1 [Compound 77, 1-(5-tert-butyl-2H-pyrazol-3-yl)-3-{4-[5-(2-methoxyl-ethoxyl)-benzimidazol-1-yl]-phenyl}-urea] | > 2500 | no significant inhibition effect |
